From patent publication US20140359899A1 (priority 2011, published 2014)

Assays:
[1] = target: T1, AtSWEET12 (Arabidopsis thaliana, UniProt O82587); experiment: Oocyte efflux assay: [14C]-sugar efflux from Xenopus oocytes expressing AtSWEET12; type: cell-based; conditions: FIG. 4D
T1 construct: Primers for the full length ORF of AtSWEET11 (AtSWT11FattB1 and AtSWT11attB2) or AtSWEET12; expressed in transfected cells; host or cells: Xenopus oocytes injected with capped cRNA from pOO2-GW

[2] = target: FRET sucrose sensor FLIPsuc90μΔ1V; conditions: detection level of the sucrose sensor; cited from earlier work

T1 sequence (O82587 whole entry): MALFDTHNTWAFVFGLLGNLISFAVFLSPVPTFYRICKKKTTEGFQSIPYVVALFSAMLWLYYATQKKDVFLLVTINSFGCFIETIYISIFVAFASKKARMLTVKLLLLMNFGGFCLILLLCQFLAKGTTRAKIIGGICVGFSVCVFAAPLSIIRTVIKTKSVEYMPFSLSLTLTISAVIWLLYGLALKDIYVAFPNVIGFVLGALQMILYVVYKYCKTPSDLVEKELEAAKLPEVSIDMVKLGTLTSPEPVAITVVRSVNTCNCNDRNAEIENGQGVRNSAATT

Compound	Maltose efflux [1]	Kd [2] [µM]
OC[C@H]1O[C@H](O[C@H]2[C@H](O)[C@@H](O)C(O)O[C@@H]2CO)[C@H](O)[C@@H](O)[C@@H]1O (mixture of isomers) [Maltose, maltose]	undetectable	
OC[C@H]1O[C@@](CO)(O[C@H]2O[C@H](CO)[C@@H](O)[C@H](O)[C@H]2O)[C@@H](O)[C@@H]1O [sucrose]		~90
